One data set relates to E. coli BL21(DE3). As to the kind of experiment: Toxicity of liquid cation exchangers, CFU determination (Example 2). An excerpt:
50% DEHPA and lauric acid (15%), each dissolved in LSME and laden equimolar or 25 mol % with ALSME, were contacted as liquid cation exchanger with a E. coli BL21 (DE3) strain, and the influence of these two compounds on the ability of the strain to form colonies, expressed in CFUs, was investigated.

The subject of data set [1] is E. coli W3110. The following applies: culture covered with identical volume of solvent, oleic acid volume adapted with LSME.
Method: Firstly, a preculture comprising 20 ml LB medium was inoculated in a 100 ml baffled flask with a cryoculture of the corresponding strain. The culture was cultured overnight at 37° C. and with shaking at 200 rpm used on the next day in order to inoculate an identical main culture to an OD of 0.2. The main cultures (each 30 mL of LB medium) were then further incubated under identical conditions. At an OD of 0.4 to 0.5, the main culture was covered with in each case identical volumes (30 ml) of solvent and then further incubated.
To determine the number of CFU (colony-forming units) 0.1 ml samples were taken in the following experiments and diluted in sterile 0.9% NaCl solution. Suitable dilution stages were plated out on LB agar plates. After incubation at 34° C. overnight, the colonies formed were counted and the CFUs determined.
For this, two different concentrations of oleic acid were used and the volume was adapted by adding the corresponding amount of LSME (methyl laurate).
On account of the lower solubility of the unsaturated fatty acid lauric acid, this was used in a smaller amount. The volumes of the different cation exchangers were made the same with the LSME. The number of CFUs was determined at the start, after 4.5 h and after 24 h.
The subject of data set [2] is E. coli W3110. Nature of the data set: Reduction in the toxicity of ALSME by contacting with a liquid cation exchanger, CFU determination (Example 4). The note with it: ALSME 0.2% (w/v) dissolved in aqueous systems, no organic phase.
Method: Before the determination of the CFU was able to be carried out, a plate LB (10 g/L peptone from casein, 5 g/L yeast extract, 10 g/L NaCl) was streaked with E. coli BW3110 and incubated for 24 h. On the evening of the following day, a preculture was inoculated from this previously streaked plate. […] After the incubation of the main culture, the cells were harvested, centrifuged at 5258 g and 4° C. for 10 min and resuspended with an OD600 of 30 in 10 mL 50 mM Kp, buffer at pH 7.4 (or 25 mM HEPES buffer pH 7.4 if CFU determinations were carried out with ALSME). Both buffer solutions used contained 5% glucose (w/v). The bacteria suspension was then transferred to the shake flasks and treated with the respective substance solutions. After thorough mixing has taken place by swirling the flask, 100 μL of the suspension was pipetted out and placed into 900 μL, of previously charged sterile saline. This corresponded to sampling at time point t0. Then followed incubation of the preparations at 250 rpm and 30° C. The CFUs were determined over a period of 22 h. The samples were taken firstly at time points t0, t3, t6 and t22. For some preparations, a further sampling time point t15 was added and, in addition to this, a further additional dilution series was plated out in order to minimize deviations.
The bacteria were firstly resuspended in 5 mL (corresponds to half of the buffer volume). […]
The nature of data set [3]: Removal (reactive extraction) of DAI and DAS from an aqueous phase into a hydrophobic organic phase (Example 3). Type of data set: physicochemical. An excerpt:
The organic solvents used here are kerosene (K), benzyl benzoate (B), methyl laurate (ML), cis-9-ocitadecen-1-ol (OD). As liquid cation exchangers, oleic acid and D2EHPA were compared in terms of their effect with the respective pure solvent.
The experimental procedure proceeded identically in all cases: the aqueous phase comprised 2% by weight of diamine and the organic phase consisted of the corresponding solvent and 20% by weight of the respective liquid cation exchanger. The volume ratio of the two phases was 1:1 (in each case 4.5 ml). At a constant temperature of T=30° C., the samples were shaken for 2 hours in a water bath. Then, after centrifugation and phase separation, the phases were analyzed. The pH was adjusted in all cases with aqueous ammonia or sulphuric acid.

For data set [4], the system named is E. coli strain BL21 (DE3) Tlr pBT10 pACYC:Duet[TAcv]. Nature of the data set: Toxicity of liquid cation exchangers in fermentation, oxygen transfer rate (OTR) (Example 5). The following applies: ion exchanger 10% w/w in methyl laurate; for toxic effect on cells judged from the OTR curve: 150 mL added to fermentation broth, 22 h. The class given is cell-based. As for the experimental part:
The biotransformation of methyl laurate to methyl aminolaurate was tested in an 8-fold parallel fermentation system from DasGip with different ion exchangers.
1 L reactors were used for the fermentation. The pH probes were calibrated using a two-point calibration with measurement solutions of pH 4.0 and pH 7.0. The reactors were filled with 300 mL of water and autoclaved for 20 min at 121° C. in order to ensure sterility. The pO2 probes were then polarized overnight (at least 6 h). On the next morning, the water was removed under the clean bench and replaced by high cell density medium with 50 mg/L kanamycin and 34 mg/L chloramphenicol. Subsequently, the pO2 probes were calibrated with a one-point calibration (stirrer: 600 rpm/gassing: 10 sL/h air) and the feed, correctant and induction means stretches were cleaned by means of clean-in-place. For this, the tubes were flushed with 70% ethanol, then with 1 M NaOH, then with sterile demineralised water, and finally filled with the respective media.
The ALS and ALSME producing E. coli strain BL21 (DE3) Tlr pBT10 pACYC:Duet[TAcv] was firstly grown from cryoculture in LB medium (25 mL in a 100 mL baffled flask) with 50 mg/L kanamycin and 34 mg/L chloramphenicol overnight at 37° C. and 200 rpm for ca. 18 h.
The 3 cultures were combined in a shake flask and the optical density was determined at 7.2. In order to inoculate the reactors with an optical density of 0.1, in each case 4.2 mL were drawn up in a 5 mL syringe and the reactors were inoculated by means of canulae via a septum.
The experiment carried out can be divided into two phases, the cultivation during which the cells should reach a certain optical density, and the subsequent biotransformation during which the expression of the genes required for the biotechnological process for producing ALSME was induced. The pH values were regulated to pH 6.8 on the one hand with ammonia (12.5%). During cultivation and biotransformation, the dissolved oxygen (DO) in the culture was regulated at 30% via stirrer speed and gassing rate. The fermentation was carried out as a feed batch, where the feed start, 5 g/Lh glucose feed (500 g/L glucose with 1% MgSO4*7H2O and 2.2% NH4Cl), was triggered via a DO peak. […] The expression of the transaminase was induced 2 h after feed start via the automatic addition of IPTG (1 mM). The induction of the alk-genes was carried out by the manual addition of DCPK (0.025% v/v) 10 h after feed start. Before the start of the biotransformation, the optical density of the culture broths was determined.
The start of the biotransformation phase was carried out 14 h after feed start. For this, 150 mL of a mixture of methyl laurate and the respective ion exchanger (10% w/w) were added as a batch to the fermentation broth. The ion exchangers used were di(2-ethylhexyl)phosphoric acid (DEHPA), lauric acid, oleic acid, palmitic acid, palmitoleic acid, stearic acid and a mixture of free fatty acids from the saponification of globe thistle oil. In order to provide an amino group donor for the transaminase, at the same time as the addition of the organic phase, 10.7 mL of an alanine solution (125 g/L) were added to the fermentation broth. For the sampling, 2 mL of fermentation broth were removed from the reactor and part of it was diluted 1/20 in an acetone/HCl mixture (c(HCl)=0.1 mol/L) and extracted. Samples were taken from all 8 reactors at 1.25 h, 3 h, 5 h, 20 h, 22 h […] after the start of the biotransformation. The transfer rates for oxygen (OTR=oxygen transfer rate) and carbon (CTR=carbon transfer rate) were determined during the fermentation via offgas analysis on the DasGip systems. The fermentation was ended 22 h after the start of the biotransformation.

The next data set has as its system E. coli BW3110. As to the kind of experiment: Toxicity of the solvent LSME, CFU determination (Example 1). Type of data set: cell-based. The following applies: cells OD600 60 in 10 mL Kp buffer mixed with 5 mL LSME 98% (w/w), 30° C. As for the experimental part:
The OD600 was 60. […] One dilution stage per preparation was plated out.

Where [5] appears, read: E. coli BL21(DE3), culture covered with identical volume of solvent, oleic acid volume adapted with LSME.
The mark [6] stands for this setting: oleic acid 20% by weight, solvent methyl laurate, pH lowered with sulphuric acid.

Molecules are shown by their SMILES.

Take `CCCCC(CC)C(=O)O` (centres unmarked) [2-Ethylhexanoic acid]: the “Number of CFUs after 22 or 24 h relative to t = 0 h” value in the data set on E. coli BL21(DE3) (setting [5]) and in the data set with E. coli W3110 [1] was 0% each time.

On to `COC(=O)CCCCCCCCCCCN` [ALSME, methyl 12-aminolaurate], for which the “effect on the bacteria” value with E. coli W3110 [2] is “bactericidal effect”.

Regarding `NC1COC2C(N)COC12` (centres unmarked) [DAI, diaminoisoiditol], in data set [3] (D2EHPA 20% by weight as liquid cation exchanger, without addition of acid or alkali, pH range 5.4 to 6.2, 30° C., 2 h, phases 1:1), the degree of extraction entry is “ca. 100%”. Moreover, the “maximum degree of extraction” value is 48% in data set [3] (setting [6]); 15.3 in data set [3] (oleic acid, solvent benzyl benzoate, pH 1.1); 85% in data set [3] (oleic acid, solvent cis-9-octadecen-1-ol, pH 7.9, neither alkali nor acid added); 77.5% in data set [3] (oleic acid, solvent kerosene, pH 8.4).

For `NC1COC2C(N)COC12` (centres unmarked) [DAS, diaminoisosorbitol], the “maximum degree of extraction” value in data set [3] (setting [6]) is on record as 4%; in data set [3] (oleic acid, solvent benzyl benzoate, pH 7.3), 61.5%; in data set [3] (oleic acid, solvent cis-9-octadecen-1-ol, pH 6 (starting pH reduced with H2SO4)) it was 5.5%; in data set [3] (oleic acid, solvent kerosene, pH 8.5), 85%.

As for `CCCCC(CC)COP(=O)(O)OCC(CC)CCCC` (centres unmarked) [DEHPA, di(2-ethylhexyl)phosphoric acid, reference compound], the “Number of CFUs after 22 or 24 h relative to t = 0 h” value in the data set with E. coli BL21(DE3) (E. coli) is recorded as 0%. The “toxic effect on cells judged from the OTR curve” value (shortened to “toxic effect on cells judged”) in data set [4] is “high grade toxic effect”. Further, the “OTR after adding the compound to the culture” value in data set [4] (150 mL, within a short time) was found to be 0.

Turning to `CC(C)CCCCCC(=O)O` [Isononanoic acid], the “Number of CFUs after 22 or 24 h relative to t = 0 h” value in the data set with E. coli BL21(DE3) (setting [5]) and in the data set on E. coli W3110 [1] was 0% each time.

Take `CCCCCCCCCCCC(=O)OC` [LSME, methyl laurate]: the “percentage decrease in living cell count” value with E. coli BW3110 (after 22 h) was 30.3%. Moreover, the “number of CFU/mL” value in the data set on E. coli BW3110 (over a period of 6 h) is “remained constant”. In addition, the “tolerance by the strains used” value with E. coli BL21(DE3) (preliminary experiments) is on record as “well tolerated”.

As for `CCCCCCCCCCCC(=O)O` [Lauric acid], the “Number of CFUs after 22 or 24 h relative to t = 0 h” value in the data set on E. coli BL21(DE3) (E. coli) came to 1.2%. Further, the “toxic effect on cells judged” value in data set [4] was “notably less toxic than DEHPA”.

With `CCCCCCCC/C=C\CCCCCCCC(=O)O` [oleic acid], the “toxic effect on cells judged” value in data set [4] was “even lower toxicity than the saturated fatty acids”.

As for `CCCCCCCCCCCCCCCC(=O)O` [palmitic acid], the “toxic effect on cells judged” value in data set [4] is given as “considerably lower toxic effect”.

On to `CCCCCC/C=C\CCCCCCCC(=O)O` [palmitoleic acid], for which, in data set [4], the “toxic effect on cells judged” value is on record as “even lower toxicity than the saturated fatty acids”.

For the molecule `CCCCCCCCCCCCCCCCCC(=O)O` [stearic acid], the “toxic effect on cells judged” value in data set [4] is “considerably lower toxic effect”.

The record behind these values is patent US10071951B2, “Liquid cation exchanger” (Evonik Degussa GmbH, priority 2011, dated 2018).
